According to patent publication US12215132B2, “Methods, compositions and uses thereof for reversing sarcopenia” (The Trustees of Columbia University in the City of New York, priority 2020, dated 2025):
Entries after “also recorded” stand apart in the source; their conditions may differ. Read-outs that look alike come from different tables or passages of the source.

How the values were obtained:
[1] = tested on: dexamethasone-treated mice
Protocol: It was also further examined whether an osteocalcin treatment might preserve muscle function and/or muscle mass in a clinically relevant mouse model of sarcopenia.
In another recognized model of sarcopenia, the efficacy of osteocalcin has been tested. Specifically, dexamethasone delivered by pumps ([…]) for 28 days has been used in mice. Another group of mice received Dexamethasone plus osteocalcin also delivered by pumps.
FIG. 9A and FIG. 9B show exemplary graphs pf exemplary modeling sarcopenia in mice.

Liver Factor 1 = Liver Factor 1 production during exercise; type: in vivo
Excerpt: OCN signaling in the liver is required for exercise capacity (see FIG. 6). OCN enhances Liver Factor 1 production during exercise (see FIG. 7). Liver Factor 1 mediates OCN regulation of exercise capacity (see FIG. 8).

animal models = conditions: in vivo
[2] = tested on: young and 12 to 15 month-old mice; conditions: data of WO 2016/081728, cited from earlier work
[3] = dexamethasone-treated mice, co-treatment with test substance
[4] = one-month chronic infusion of dexamethasone, mice

With N#Cc1ccc(N2CCC[C@@H]2[C@@H](O)C(F)(F)F)cc1C(F)(F)F [VK5211, reference compound] as the molecule, how does the muscle mass [1, 3] read?
Its muscle mass is “fully restored muscle mass to normal levels”.

What about the “running capacity / exercise capacity” value [1, 3] of the same molecule?
Its value is “modest effect”.

For C[C@@H]1C[C@H]2[C@@H]3CCC4=CC(=O)C=C[C@]4(C)[C@@]3(F)[C@@H](O)C[C@]2(C)[C@@]1(O)C(=O)CO [dexamethasone, reference compound], which “ability to run on a treadmill” value ([1]; mouse, in vivo) is on record?
Its value is “decreased”.

And the muscle mass ([1]; mouse, in vivo)?
Its muscle mass is “decreased”.

And the “decrease of gastrocnemius muscle mass” value [1, 4]?
The value was 30%.

What about the “reduction of running capacity” value [1, 4] of the same molecule?
Its value is 50%.

Which IL-6 ([1]; Dex-induced sarcopenia) does the source give for “osteocalcin: Osteocalcin, a bone-derived hormone; small (46-50 amino acid residues) bone specific protein (YLYQWLGAPVPYPDPLEPRREVCELNPDCDELADHIGFQEAYRR; listed as Homo sapiens)” here?
The IL-6 was “favors IL-6”.

What about the “muscle function versus muscle mass; comparison with VK5211” value ([1]; Dex-induced sarcopenia) of the same molecule?
Its value is “outperforms”.

What about the “muscle function versus muscle mass; comparison with VK5211” value ([1]; Dex-induced sarcopenia, listed as OCN) of the same molecule?
The value was “mainly targets muscle function”.

What about the muscle mass ([1]; dexamethasone-treated mice, co-treatment with test substance, listed as OCN) of the same molecule?
Its muscle mass is “marginal effect”.

What about the off-target effects ([1]; mouse, in vivo) of the same molecule?
The off-target effects was “no overt off-target effects”.

And the “deleterious effect of dexamethasone on muscle function” value ([1]; osteocalcin given to mice that had already received dexamethasone for two weeks)?
Its value is “partially revert”.

And the “Liver Factor 1 production” value (Liver Factor 1)?
Its value is “enhances”.

And the negative side-effects (animal models)?
Its negative side-effects is “safe with no recorded negative side-effects”.

And the exercise capacity ([2]; 12 to 15 month-old mice)?
The exercise capacity was “confers to 15 months-old mice exercise capacity of 3 month-old mice; also recorded: confers to 12 to 15 month-old mice the exercise capacity of 3 month-old mice”.

What about the exercise capacity ([2]; young mice) of the same molecule?
The exercise capacity was “increases the exercise capacity”.
